US20220226291A1, “Combination Treatment of Cancer Using Sulfonamide Compound and Immune Regulator” (Taiho Pharmaceutical Co., Ltd, priority 2019, published 2022)

Key:
RNR = target: T1, RNR (Homo sapiens, UniProt P31350); settings: Non-Patent Literature 7; cited from earlier work
T1 sequence (P31350 1-389): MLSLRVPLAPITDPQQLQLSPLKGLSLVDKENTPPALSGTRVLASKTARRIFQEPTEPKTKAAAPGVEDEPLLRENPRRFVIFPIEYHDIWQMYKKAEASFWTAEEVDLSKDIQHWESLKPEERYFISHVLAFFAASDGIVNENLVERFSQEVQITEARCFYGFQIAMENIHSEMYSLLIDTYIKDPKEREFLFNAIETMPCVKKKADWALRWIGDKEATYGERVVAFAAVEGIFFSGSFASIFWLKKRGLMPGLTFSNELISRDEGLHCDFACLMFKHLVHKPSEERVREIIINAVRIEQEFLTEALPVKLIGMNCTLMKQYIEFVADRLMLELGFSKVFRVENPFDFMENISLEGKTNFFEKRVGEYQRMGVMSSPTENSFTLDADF

[1] = Non-Patent Literature 10; cited from earlier work
[2] = Body weight changes in MC38 colon cancer cell-transplanted mouse models; assay type: in vivo
Experimental: Body weights were measured using an electronic balance for animals. Body weight changes (BWCn) on the n^th day were determined based on the body weight measured on the n^th day (BWn) in accordance with the following formula.
(§1) An aqueous solution of 0.5% Hypromellose was prepared by adding an adequate amount of an injection solvent (Japanese Pharmacopoeia) to and dissolving Hypromellose at a concentration of 0.5 w/v %. Compound 1, synthesized in accordance with the method disclosed in WO 2017/209155, was grounded in an agate mortar, suspended at a given concentration in the aqueous solution of 0.5% Hypromellose, and then ultrasonically treated to obtain a homogeneous suspension. The resulting suspension was orally administered as Compound 1 once a day for continuous 14 days at 25 mg/kg/day or 50 mg/kg/day. To the control group, the aqueous solution of 0.5% Hypromellose was orally administered once a day for continuous 14 days.
(§2) As an anti-mouse PD-1 antibody (anti-mPD-1 Ab), CD279 (PD-1) Monoclonal Antibody (RMP1-14), eBioscience (Thermo Fisher Scientific) was diluted to a given concentration with PBS immediately before administration. On the first day of administration (Day 1), the anti-mouse PD-1 antibody was administered intraperitoneally at 0.05 mg/body.

[3] = test system: MC38 mouse colon cancer cells; assay: Antitumor effect in MC38 colon cancer cell-transplanted mouse models (tumor volume); assay type: in vivo; settings: for T/C (%): Day 15; for TV on Day 15 (mm^3, mean ± SE): MC38 s.c. in C57BL/6NCrl mice, n=10
Experimental: The mouse colon cancer cell strain MC38 was obtained from Dr. Yoshihiro Hayakawa (University of Toyama, Toyama, Japan). The MC38 cell strain was subjected to culture in an RPMI 1640 medium containing 10% fetal bovine serum and then to subculture in an incubator at 37° C. in the presence of 5% CO2 at a frequency of once or twice a week.
The MC38 cell suspension was transplanted subcutaneously at 1×10^6 cells/0.1 ml to the right chest of 6-week-old C57BL/6NCrl mice (Charles River Laboratories Japan, Inc.).
After transplantation, tumors were allowed to grow to reach the tumor volume (TV) of 50 to 300 mm^3. The longer diameter and the shorter diameter of the tumor were measured using a Digimatic caliper and the tumor volume (TV) was calculated in accordance with the following formula.
The animals were divided into groups each consisting of 10 individuals by stratified random allocation using TV as the indicator. The day on which grouping (n=10) was performed was designated as Day 0.
Tumor volume changes (T/C) were calculated based on TV on the final day of evaluation (Day 15).
as §1, §2

[4] = Compound 1 25 mg/kg/day p.o. days 1-14
[5] = Compound 1 50 mg/kg/day p.o. days 1-14

NC(=O)NO [HU, hydroxyurea]
RNR inhibitory activity (RNR): very weak

NC(=S)NN=Cc1ncccc1N [Compound 3-AP, 3-aminopyridine-2-carboxaldehyde thiosemicarbazone]
Side effects caused in clinical cases [1]: hypoxia, dyspnea, methemoglobinemia

Cc1ccc(F)c([C@@H](C)[C@H](NS(=O)(=O)c2ccc(Cl)cc2C(N)=O)c2n[nH]c(=O)o2)c1C [Compound 1, 5-Chloro-2-(N-((1S,2R)-2-(6-fluoro-2,3-dimethylphenyl)-1-(5-oxo-4,5-dihydro-1,3,4-oxadiazol-2-yl)propyl)sulfamoyl)benzamide]
BWC on Day 15 (%, mean ± SE) [2, 4]: 4.0 ± 0.7%
BWC on Day 15 (%, mean ± SE) [2, 5]: 4.9 ± 1.0%
T/C (%) [3, 4]: 91.9%
TV on Day 15 (mm^3, mean ± SE) [3, 4]: 868 ± 182 mm^3
T/C (%) [3, 5]: 29.7%
TV on Day 15 (mm^3, mean ± SE) [3, 5]: 306 ± 79 mm^3
TV on Day 15 compared with the control group (Dunnett's test) ([3]; Compound 1 at 50 mg/kg/day alone): significantly lower
